Among the test systems are A549; BT-549; HCC 2998; KM12; MCF7; MDA-MB-231; MDA-MB-435; MOLT-4; Malme-3M; NCI-H226; NCI-H23; NCI-H522; NCI/ADR-RES; RXF 393; SK-MEL-2; SK-OV-3; SNB-75; SR; UACC-257; UO-31.
Test in all cases: DTP human tumour cell line panel, 48 h

The structures appear in SMILES notation.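 The compound was tested at five concentrations on cells cultured in 96-well plates, with a 48-hour exposure period. Here, GI50 denotes the concentration required for 50% inhibition of growth.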 Active and inactive are the calls of the source. Cut-off read from the data, not from the text of the source: active = GI50 up to about 1.1 µM and inactive = higher.

Data on two molecules can be found in ChEMBL document CHEMBL1201862, “PubChem BioAssay data set” (2004).

The term GI50 denotes the concentration at which growth is held to half of that of the control. As to `COC(=O)CCC(C)[C@H]1CCC2C3CC[C@@H]4CC5(CC[C@]4(C)C3C[C@H](OC(C)=O)[C@@]21C)OOC1(CCCCC1)OO5` (stereo not given in full), the GI50 in the experiment with A549 is 9.77 µM (inactive); with BT-549, 27.6 µM (inactive); with HCC 2998, 2.25 µM (inactive); in the experiment on KM12, 8.85 µM (inactive); in the experiment on MCF7 it was 8.69 µM (inactive); with MDA-MB-231, > 100 µM (inactive). Also, the GI50 in the experiment on MDA-MB-435 was 7.35 µM (inactive); in the experiment with MOLT-4, 6.11 µM (inactive); with Malme-3M it was 4.03 µM (inactive); in the experiment on NCI-H226, > 100 µM (inactive); in the experiment with NCI-H23, 9.55 µM (inactive); in the experiment on NCI-H522, 6.01 µM (inactive). For the same molecule, the GI50 in the experiment with NCI/ADR-RES is 81.1 µM (inactive); in the experiment on RXF 393 it was > 100 µM (inactive); in the experiment with SK-MEL-2, 5.26 µM (inactive); with SK-OV-3, > 100 µM (inactive); in the experiment with SNB-75, 55.2 µM (inactive); in the experiment with SR, 3.33 µM (inactive). The results for the GI50 in the experiment with UACC-257 and in the experiment on UO-31 were 4.49 µM (inactive) and 2.67 µM (inactive), respectively.
As to `O=C(/C=C1/Nc2ccc([N+](=O)[O-])cc2N/C1=C/C(=O)c1ccccc1)c1ccccc1`, the GI50 was 36.3 µM (inactive) with A549; 18.5 µM (inactive) with BT-549; 55.8 µM (inactive) in the experiment with HCC 2998; 59.4 µM (inactive) with KM12; 21 µM (inactive) in the experiment on MCF7; 16.6 µM (inactive) with MDA-MB-231. The GI50 in the experiment with MDA-MB-435 was > 100 µM (inactive); in the experiment with MOLT-4, 22.5 µM (inactive); with Malme-3M it was 40.8 µM (inactive); in the experiment with NCI-H226 it was 23.4 µM (inactive); in the experiment with NCI-H23 it was 12.4 µM (inactive); in the experiment on NCI-H522, 13.3 µM (inactive). Further, the GI50 in the experiment with NCI/ADR-RES was 18.3 µM (inactive); with RXF 393, 14.3 µM (inactive); in the experiment with SK-MEL-2 it was 0.385 µM (active); with SK-OV-3, 23 µM (inactive); in the experiment with SNB-75 it was 16.9 µM (inactive); in the experiment with SR it was 27.5 µM (inactive). Also, the GI50 in the experiment with UACC-257 was > 100 µM (inactive); in the experiment with UO-31, 18.6 µM (inactive).
